According to US20200237736A1, “METHODS FOR PREVENTING OR TREATING CANCER RESISTANCE TO EGFR INHIBITION” (INSERM (INSTITUT NATIONAL DE LA SANTE ET DE LA RECHERCHE …, priority 2017, published 2020):

Columns and labels:
[1] = test system: PC9 cells containing the EGFR-T790M mutation; assay: CRISPR-barcoding qPCR: fraction of EGFR-T790M barcode in PC9 cells in the presence of gefitinib; type: cell-based; conditions: SC-1 20 μM, gefitinib 1 μM, 5 days; FIG. 11A
Text: (§1) Cells were transfected with a Nucleofector II device (Lonza) using the Amaxa Nucleofector kit (Lonza) and electroporation program recommended by the manufacturer.
(§2) The set of silent mutations is designed to enable PCR specificity and to avoid recognition by the corresponding sgRNA used to cleave the endogenous sequence. […] Immediately after transfection, the cells were pooled in the same flask.
(§3) gDNA was extracted using the NucleoSpin Tissue kit (Macherey-Nagel). To avoid potential amplification from ssODN molecules not integrated in the correct genomic locus, one of the two primers was designed to target the endogenous genomic sequence flanking the region sharing homology with the ssODNs.
as §1, §2

STAT3 phosphorylation [2] = assay: Immunoblot, STAT3 phosphorylation in PC9 cells; type: cell-based; conditions: for STATS phosphorylation: PC9 cells, 3 days, sorafenib 5 μM or SC-1 20 μM, FIG. 11B
Procedure: (§4) Immunoblot was performed using the indicated antibodies.
FIG. 11: SC-1 prevents resistance of NSCLC cells to EGFR TKI. […] The mean values (±SEM) representative of four independent experiments are represented. (B).
(§5) Cells were washed once with phosphate-buffered saline (PBS) and lysed on ice in a buffer containing 50 mM Hepes pH 7.6, 150 mM NaCl, 5 mM EDTA, 1% Nonidet P-40, 20 mM NAF, 2 mM sodium orthovanadate, supplemented with protease inhibitor mini tablets (Thermo Scientific). Lysates were cleared by centrifugation at 14,000 g during 15 min at 4° C. and protein concentrations were determined by using the Bradford protein assay (Bio-Rad). Sodium dodecyl sulfate (SDS) loading buffer was added to equal amounts of lysate, followed by SDS-polyacrylamide gel electrophoresis (SDS-PAGE) and transfer to polyvinylidene fluoride (PVDF) membrane (Thermo Scientific). Membranes were analyzed by chemiluminescence using a ChemiDoc imaging system (Biorad). All primary antibodies were purchased from Cell Signaling. Secondary antibodies were purchased from Santa Cruz.

EGFR = assay: Immunoblot, EGFR expression in PC9 cells; type: cell-based; conditions: 3 days, sorafenib 5 μM or SC-1 20 μM, FIG. 11B
Procedure: The fraction of the EGFR-T790T and EGFR-T790M barcodes was assessed by qPCR and normalized to the total amount of gDNA using EGFR_Ctrl primers.

kinase = conditions: cited from earlier work
STAT3 phosphorylation [3] = conditions: different cell models, including EGFR-wild type NSCLC cells; Su et al., 2015; Wang et al., 2014; cited from earlier work
breast cancer cell lines = conditions: Liu et al. 2013; cited from earlier work
[4] = test system: EGFR wild-type NSCLC cell lines; conditions: Wang et al 2014; cited from earlier work
[5] = test system: EGFR-wild type NSCLC cells; conditions: different cell models, including EGFR-wild type NSCLC cells; Su et al., 2015; Wang et al., 2014; cited from earlier work
NSCLC [6] = conditions: treatment of NSCLC; Shepherd et al 2005; cited from earlier work
[7] = test system: EGFR-C797S cells within PC9-(EGFR-T790M) cells; assay: CRISPR-barcoding qPCR: EGFR-C797S barcode in PC9-(EGFR-T790M) cells; type: cell-based; conditions: osimertinib 1 μM alone, nine days; FIG. 3A
Text: as §2, §3

[8] = test system: EGFR-C797S cells within PC9-(EGFR-T790M) cells; assay: Colony forming assay, EGFR-C797S barcoded PC9-(EGFR-T790M) cells; type: cell-based; conditions: osimertinib 1 μM alone, 14 days; FIG. 3B
[9] = test system: parental, EGFR-T790M and EGFR-T790M/C797S PC9 cells
[10] = test system: EGFR-T790M PC9 cells containing the EGFR-C797S CRISPR-barcode; conditions: mouse, in vivo
Procedure: From day 39, the mice were treated three times per week. The mean tumor size ±SEM is represented for the different groups (5 mice per group).
The proportions of the barcode in the cells prior to mouse injection was analyzed in parallel and arbitrarily set to 1. (B) For each group, the mean of the values (±SEM) shown in A is represented.
Gefitinib resistant PC9 cells (EGFR-T790M) containing the EGFR-C797 CRISPR-barcodes were mixed with matrigel and subcutaneously inoculated in the left and right flank (2×10^6 cells per site) of male SCID mice. The size of the tumors was measured by caliper every 3-4 days. […] From day 39, the mice were treated three times per week. Tumors from sacrificed mice were dissected, and gDNA was derived using the DNeasy Blood & Tissue Kit (Qiagen).

NSCLC [11] = conditions: first-line treatment; Soria et al. 2018; cited from earlier work
MAPK activation = assay: Immunoblot, MAPK activation in PC9 cells; type: cell-based; conditions: sorafenib 5 μM, 2 or 6 hours; FIG. 4A
Procedure: as §4, §5

MYC transcription factor = assay: Immunoblot, MYC expression in PC9 cells; type: cell-based; conditions: sorafenib 5 μM, two days; parental and EGFR-T790M PC9 cells; FIG. 4B
Procedure: as §4, §5

With N#Cc1ccc(Oc2ccc(NC(=O)Nc3ccc(Cl)c(C(F)(F)F)c3)cc2)cc1 [SC-1, N-[4-Chloro-3-(trifluoromethyl)phenyl]-N′-[4-(4-cyanophenoxy)phenyl]-urea] the “amplification of EGFR-T790M containing cells in the presence of gefitinib (qPCR)” value [1] was “could mimic the effects of sorafenib”, the STATS phosphorylation (STAT3 phosphorylation [2]) was “inhibited” and the EGFR expression (EGFR) was “down-regulated”. For the same molecule, the kinase-inhibition activity (kinase) was “no kinase-inhibition activity”, the pSTAT3 inhibition (STAT3 phosphorylation [3]) was “pSTAT3 inhibition” and the apoptosis (breast cancer cell lines) was “induces apoptosis”. The apoptosis [4] was “induces apoptosis” and the growth inhibition [5] was “growth inhibition”.
In the case of C#Cc1cccc(Nc2ncnc3cc(OCCOC)c(OCCOC)cc23)c1 [erlotinib], the clinical response rate (NSCLC [6]) is given as “about 8.9%”.
For C=CC(=O)Nc1cc(Nc2nccc(-c3cn(C)c4ccccc34)n2)c(OC)cc1N(C)CCN(C)C [osimertinib], the “amplification of EGFR-C797S cells (qPCR)” value [7] was “induced a strong amplification”, the “amplification of EGFR-C797S cells (colony forming assay)” value [8] was “induced a strong amplification” and the “cell growth (colony forming assay)” value [9] was “inhibited cell growth”. The “growth of the tumors / tumor size” value [10] was “initially inhibited, but it eventually resumed after a few weeks”, the “adverse effects compared to first/second generation TKIs” value (NSCLC [11]) was “less severe adverse effects” and the “efficacy compared to first/second generation TKIs” value (NSCLC [11]) was “superior efficacy”.
With CNC(=O)c1cc(Oc2ccc(NC(=O)Nc3ccc(Cl)c(C(F)(F)F)c3)cc2)ccn1 [sorafenib] the STATS phosphorylation (STAT3 phosphorylation [2]) was “inhibited”, the STAT3 phosphorylation (STAT3 phosphorylation [2]; sorafenib 5 μM, 2 or 6 hours, FIG. 4) was “rapid inhibition” and the MAPK activation (MAPK activation) was “no effect”. For the same molecule, the “expression of MYC transcription factor” value (MYC transcription factor) was “down-regulated”.
